# ChEMBL document CHEMBL5500341, “Discovery of pyrido[3,2-d]pyrimidin-6(5H)-one derivatives as checkpoint kinase 1 (CHK1) inhibitors with potent antitumor efficacy” (Eur J Med Chem, 2024)
# Columns and labels:
# MV4-11 = assay: Antiproliferative activity against human MV4-11 cells assessed as inhibition of cell proliferation incubated for 72 hrs by CCK-8 assay; assay type: functional, cell-based; conditions: MV4-11, 72 h
# [1] = Metabolic stability in human liver microsome assessed as parent compound remaining preincubated with compound for 10 mins followed by NADPH addition and measured immediately by LC-MS/MS analysis; assay type: ADME; conditions: liver microsomes, read-out: Stability
# [2] = Metabolic stability in human liver microsome assessed as parent compound remaining preincubated with compound for 10 mins followed by NADPH addition and measured at 5 min by LC-MS/MS analysis; assay type: ADME; conditions: liver microsomes, time 15 min, read-out: Stability
# [3] = Metabolic stability in human liver microsome assessed as parent compound remaining preincubated with compound for 10 mins followed by NADPH addition and measured at 15 min by LC-MS/MS analysis; assay type: ADME; conditions: liver microsomes, time 25 min, read-out: Stability
# [4] = Metabolic stability in human liver microsome assessed as parent compound remaining preincubated with compound for 10 mins followed by NADPH addition and measured at 30 min by LC-MS/MS analysis; assay type: ADME; conditions: liver microsomes, time 40 min, read-out: Stability
# [5] = Metabolic stability in human liver microsome assessed as parent compound remaining preincubated with compound for 10 mins followed by NADPH addition and measured at 60 min by LC-MS/MS analysis; assay type: ADME; conditions: liver microsomes, time 70 min, read-out: Stability
# [6] = Metabolic stability in human liver microsome assessed as half life preincubated with compound for 10 mins followed by NADPH addition and measured up to 60 min by LC-MS/MS analysis; assay type: ADME; conditions: liver microsomes, time < 70 min
# [7] = Metabolic stability in human microsome assessed as intrinsic clearance preincubated with compound for 10 mins followed by NADPH addition and measured up to 60 min by LC-MS/MS analysis; assay type: ADME; conditions: microsomes, time < 70 min, read-out: CLH
# [8] = Metabolic stability in human liver microsome assessed as intrinsic clearance preincubated with compound for 10 mins followed by NADPH addition and measured up to 60 min by LC-MS/MS analysis; assay type: ADME; conditions: liver microsomes, time < 70 min, read-out: CLH
# [9] = Initial plasma concentration in ICR mouse at 2 mg/kg, iv measured up to 24 hrs by LC-MS/MS analysis; assay type: ADME, organism-based
# [10] = Cmax in ICR mouse at 2 mg/kg, iv measured up to 24 hrs by LC-MS/MS analysis; assay type: ADME, organism-based; conditions: in vivo
# [11] = Cmax in ICR mouse at 10 mg/kg, po measured up to 24 hrs by LC-MS/MS analysis; assay type: ADME, organism-based; conditions: in vivo
# [12] = Half life in ICR mouse at 2 mg/kg, iv measured up to 24 hrs by LC-MS/MS analysis; assay type: ADME, organism-based; conditions: in vivo
# [13] = Half life in ICR mouse at 10 mg/kg, po measured up to 24 hrs by LC-MS/MS analysis; assay type: ADME, organism-based; conditions: in vivo
# [14] = Tmax in ICR mouse at 2 mg/kg, iv measured up to 24 hrs by LC-MS/MS analysis; assay type: ADME, organism-based; conditions: in vivo
# [15] = Tmax in ICR mouse at 10 mg/kg, po measured up to 24 hrs by LC-MS/MS analysis; assay type: ADME, organism-based; conditions: in vivo
# [16] = AUC (0 to t) in ICR mouse at 2 mg/kg, iv measured up to 24 hrs by LC-MS/MS analysis; assay type: ADME, organism-based; conditions: in vivo
# [17] = AUC (0 to t) in ICR mouse at 10 mg/kg, po measured up to 24 hrs by LC-MS/MS analysis; assay type: ADME, organism-based; conditions: in vivo
# [18] = AUC (0 to infinity) in ICR mouse at 2 mg/kg, iv measured up to 24 hrs by LC-MS/MS analysis; assay type: ADME, organism-based; conditions: in vivo
# [19] = AUC (0 to infinity) in ICR mouse at 10 mg/kg, po measured up to 24 hrs by LC-MS/MS analysis; assay type: ADME, organism-based; conditions: in vivo
# [20] = MRT (0 to t) in ICR mouse at 2 mg/kg, iv measured up to 24 hrs by LC-MS/MS analysis; assay type: ADME, organism-based; conditions: in vivo
# [21] = MRT (0 to t) in ICR mouse at 10 mg/kg, po measured up to 24 hrs by LC-MS/MS analysis; assay type: ADME, organism-based; conditions: in vivo
# [22] = MRT (0 to infinity) in ICR mouse at 2 mg/kg, iv measured up to 24 hrs by LC-MS/MS analysis; assay type: ADME, organism-based; conditions: in vivo
# [23] = MRT (0 to infinity) in ICR mouse at 10 mg/kg, po measured up to 24 hrs by LC-MS/MS analysis; assay type: ADME, organism-based; conditions: in vivo
# [24] = Clearance in ICR mouse at 2 mg/kg, iv measured up to 24 hrs by LC-MS/MS analysis; assay type: ADME, organism-based; conditions: in vivo
# [25] = Volume of distribution at steady state in ICR mouse at 2 mg/kg, iv measured up to 24 hrs by LC-MS/MS analysis; assay type: ADME, organism-based; conditions: in vivo, read-out: Vdss
# [26] = Oral bioavailability in ICR mouse at 10 mg/kg measured up to 24 hrs by LC-MS/MS analysis; assay type: ADME, organism-based; conditions: in vivo
# [27] = target: Serine/threonine-protein kinase Chk2 (Homo sapiens) (UniProt O96017); assay: Inhibition of CHK2 (unknown origin) at 500 nM relative to control
# HT-29 [28] = assay: Antitumor activity against human HT-29 cells xenografted in female BALB/c mouse assessed as tumor growth inhibition at 30 mg/kg, iv administered once daily for 21 days and measured after 3 days by vernier calipers analysis; conditions: HT-29, 576 h, read-out: TGI
# HT-29 [29] = assay: Antitumor activity against human HT-29 cells xenografted in female BALB/c mouse assessed as tumor growth inhibition at 30 mg/kg, iv administered once daily for 21 days and measured after 3 days in presence of gemcitabine by vernier calipers analysis; conditions: HT-29, 576 h, read-out: TGI
# [30] = Toxicity in female BALB/c mouse xenografted with human HT-29 cells assessed as change in body weight at 30 mg/kg, iv administered once daily for 21 days and measured after 3 days; assay type: organism-based; conditions: in vivo, 576 h, time 24 day
# HT-29 [31] = assay: cells; conditions: Homo sapiens, HT-29, 72 h
# Description: Antiproliferative activity against human HT-29 cells assessed as inhibition of cell proliferation incubated for 72 hrs by CCK-8 assay
# A549 = assay: cells; conditions: Homo sapiens, A549, 72 h
# Description: Antiproliferative activity against human A549 cells assessed as inhibition of cell proliferation incubated for 72 hrs by CCK-8 assay
# OVCAR-3 = assay: cells; conditions: Homo sapiens, OVCAR-3, 72 h
# Description: Antiproliferative activity against human OVCAR-3 cells assessed as inhibition of cell proliferation incubated for 72 hrs by CCK-8 assay
# HL-60 = assay: cells; conditions: Homo sapiens, HL-60, 72 h
# Description: Antiproliferative activity against human HL-60 cells assessed as inhibition of cell proliferation incubated for 72 hrs by CCK-8 assay
# HCT-116 = assay: cells; conditions: Homo sapiens, HCT-116, 72 h
# Description: Antiproliferative activity against human HCT-116 cells assessed as inhibition of cell proliferation incubated for 72 hrs by CCK-8 assay
# A2780 = assay: cells; conditions: Homo sapiens, A2780, 72 h
# Description: Antiproliferative activity against human A2780 cells assessed as inhibition of cell proliferation incubated for 72 hrs by CCK-8 assay
# MDA-MB-468 = assay: cells; conditions: Homo sapiens, MDA-MB-468, 72 h
# Description: Antiproliferative activity against human MDA-MB-468 cells assessed as inhibition of cell proliferation incubated for 72 hrs by CCK-8 assay
# HT-29 [32] = assay: cells; conditions: Homo sapiens, HT-29, 72 h; remark: listed apart in the source
# Description: Synergistic antiproliferative activity against human HT-29 cells assessed as inhibition of cell proliferation incubated for 72 hrs in presence of gemcitabine by CCK-8 assay
# HT-29 [33] = assay: cells; conditions: Homo sapiens, HT-29, 72 h; remark: listed apart in the source
# Sequence of Serine/threonine-protein kinase Chk2 (Homo sapiens) (O96017 whole entry): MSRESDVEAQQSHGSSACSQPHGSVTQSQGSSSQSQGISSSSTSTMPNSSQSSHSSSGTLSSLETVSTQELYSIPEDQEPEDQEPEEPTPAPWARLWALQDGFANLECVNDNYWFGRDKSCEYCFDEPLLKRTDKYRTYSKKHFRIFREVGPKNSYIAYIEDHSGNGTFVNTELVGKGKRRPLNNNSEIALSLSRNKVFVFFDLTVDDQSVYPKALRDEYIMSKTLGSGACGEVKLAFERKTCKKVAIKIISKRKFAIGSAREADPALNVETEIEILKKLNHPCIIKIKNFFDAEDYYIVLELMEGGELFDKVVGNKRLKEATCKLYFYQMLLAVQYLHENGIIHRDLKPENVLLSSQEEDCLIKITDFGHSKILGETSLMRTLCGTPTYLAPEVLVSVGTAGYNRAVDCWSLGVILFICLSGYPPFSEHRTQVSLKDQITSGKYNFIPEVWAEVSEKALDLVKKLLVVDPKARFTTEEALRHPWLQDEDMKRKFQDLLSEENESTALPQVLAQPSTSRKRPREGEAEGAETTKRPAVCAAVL
compound,measurement,setting,value
N#Cc1ncc(Nc2ncc3c(ccc(=O)n3CC(F)F)n2)cc1N[C@@H]1CCNC1,IC50,MV4-11,202 nM
same,remaining at 0 min,[1],100%
same,remaining at 5 min,[2],60.1%
same,remaining at 0.25 h,[3],24.4%
same,remaining at 0.5 h,[4],8.93%
same,remaining at 1 h,[5],1.96%
same,half-life,[6],0.18 h
same,microsomal CLint,[7],129 µL/min/mg
same,CLint scaled,[8],116 mL/min/kg
same,C0 at 24 h,[9],860 ng/mL
same,Cmax,[10],526 ng/mL
same,Cmax,[11],81.1 ng/mL
same,half-life,[12],5.7 h
same,half-life,[13],1.51 h
same,Tmax,[14],4.8 min
same,Tmax,[15],4.8 min
same,AUC(0-t) at 24 h,[16],327 ng·h/mL
same,AUC(0-t) at 24 h,[17],40.7 ng·h/mL
same,AUC(0-inf),[18],341 ng·h/mL
same,AUC(0-inf),[19],47.3 ng·h/mL
same,MRT last at 24 h,[20],2.67 h
same,MRT last at 24 h,[21],1 h
same,MRT inf,[22],3.91 h
same,MRT inf,[23],1.65 h
same,clearance,[24],98.4 mL/min/kg
same,Vd,[25],23.3 L/kg
same,bioavailability,[26],2.77%
same,inhibition,[27],22%
same,inhibition in vivo at 30 mg/kg,HT-29 [28],20.6%
same,inhibition in vivo at 30 mg/kg,HT-29 [29],42.8%
same,Activity,[30],Non-Toxic
same,IC50,HT-29 [31],1170 nM
same,IC50,A549,> 10000 nM
same,IC50,OVCAR-3,606 nM
same,IC50,HL-60,> 10000 nM
same,IC50,HCT-116,> 10000 nM
same,IC50,A2780,> 10000 nM
same,IC50,MDA-MB-468,> 10000 nM
same,IC50,HT-29 [32],63.5 nM
same,IC50,HT-29 [33],63.5 nM
